Results as given in patent US20240415819A1, “MACROCYCLIC COMPOUNDS AS PROTEASOME SUBUNIT BETA TYPE-5 INHIBITORS” (Lead Discovery Center GmbH, priority 2021, published 2024).

Legend:
HT-29 cells = test: CellTiter-Glo luminescent cell viability assay with HT-29 cells (72h incubation); format: cell-based, human; details: Homo sapiens, HT-29, HT29 cells, read-out: CTG HT29
Experimental: Cell Titer Glo Viability Assay with HT-29 Cells (72h Incubation) The CellTiter-Glo Luminescent Cell Viability Assay (Promega) is a homogeneous method of determining the number of viable cells in culture. It is based on quantification of ATP, indicating the presence of metabolically active cells. On day 1 400 HT-29 cells per well are seeded in white 384well plates (Greiner, #781080) in 25 μl cell culture medium (DMEM (PAN-Biotech #P04-03590)+10% FCS+glutamine). After incubation for 24 h at 37° C./5% CO2 compounds or DMSO are added at different concentrations by Echo Liquid Handling Technology. Cells are further incubated in humidified chambers for 72 h at 37° C. and 5% CO2. Cells treated with the compound vehicle DMSO are used as positive controls and cells treated with 10 μM Staurosporine serve as negative controls. At day 5-72h after compound addition—the CellTiter Glo Reagent is prepared according to the instructions of the kit (Promega Inc.): Reagent is mixed 1:1 with cell culture medium. Thereon, mixture and assay plates are equilibrated at room temperature for 20 min. Equal volumes of the reagent-medium-mixture is added to the volume of culture medium present in each well. The plates are mixed at […] for 2 minutes on an orbital shaker. The microplates are then incubated at room temperature for 10 minutes for stabilization of the luminescent signal. Following incubation the luminescence is recorded on a Victor microplate reader (Perkin Elmer) using a 200 ms integration time. The data is then analyzed with Excel using the XLFIT Plugin (dose response Fit 205) for IC50-determination. As quality control the Z′-factor is calculated from 16 positive and negative control values. […] Inhibition is indicated as IC50 [nM] (“-”=not measured).

[1] = biological target: T1, β5 subunit of the human immunoproteasome (IPS) (Homo sapiens, UniProt P28062); test: β5 inhibition assay, human immunoproteasome (Suc-LLVY-AMC); format: biochemical; details: IC50 class, Suc-LLVY-AMC substrate
T1 construct: purchased Boston Biochem E-370
Experimental: The enzymatic activity of the β5 subunit of the human constitutive proteasome (CPS) is analyzed. In another assay, which differs from the assay of the human constitutive proteasome only in using the human immunoproteasome (IPS) the enzymatic activity of the β5 subunit of the human immunoproteasome (IPS) is analyzed. Incubation of the enzyme with its fluorogenic substrate Suc-LLVY-AMC leads to liberation of the fluorescent dye AMC which can be measured with a suitable plate reader. • 100 mM HEPES pH7.5 • 50 mM NaCl • 0.02% SDS • 1 mM DTT (add fresh) • Victor X5 (Perkin Elmer) • Label: Umbeliferone (0.1s) • Excitation wavelength: 355 nm • Emission wavelength: 460 nm • 4 μl human cPS or IPS enzyme in assay buffer (final assay concentration 1 nM) or 4 μl assay buffer for negative controls • Compound addition via acoustic dispenser (Echo 520, Labcyte) • Mix and incubate @ RT for 10 min • 4 μl Suc-LLVY-AMC substrate (final assay concentration 22.6 μM) • Mix and incubate @ RT for 4 h (dark) • Stop reaction with 4 μl Bortezomib (final assay concentration 1 μM) • 15 min @ RT • Measure (Excitation 355 nm; Emission 460 nm)

[2] = biological target: T2, β5 subunit of the human constitutive proteasome (CPS) (Homo sapiens, UniProt P28074); test: β5 inhibition assay, human constitutive proteasome (Suc-LLVY-AMC); format: biochemical; details: IC50 class, Suc-LLVY-AMC substrate
T2 construct: purchased Boston Biochem E-360
Experimental: The enzymatic activity of the β5 subunit of the human constitutive proteasome (CPS) is analyzed. In another assay, which differs from the assay of the human constitutive proteasome only in using the human immunoproteasome (IPS) the enzymatic activity of the β5 subunit of the human immunoproteasome (IPS) is analyzed. […] Inhibition is indicated as IC50 [nM] (“-”=not measured).

[3] = system: A549 (human lung carcinoma cell line); test: Glo assay of A549 cells (Table 3; ProteasomeGlo plating scheme); format: cell-based; details: Homo sapiens; A549 cells; read-out: PGLo A549
Description: Inhibition is indicated as IC50 [nM] (“-”=not measured). […] • Chymotrypsin-Like Cell-Based Proteasome-GloTM Assay (Promega; […]) • Cell culture 384-well plates (Greiner BioOne; 781080) • Dispensing cassette, MultiDrop Standard tube dispensing cassette (Thermo Scientific; 24072670) • DPBS (Pan BioTech; P04-36500) • Cell culture 384-well plates (Greiner BioOne; 781080) • CPD source plate: diamond-shape plate (Labcyte; LP-0200) • Intermediate plate (Labcyte; P-05525) [table] • a. Remove the plates with cells from the incubator. • b. Take all the plates including the compound plate, intermediate plate and Staurosporine plate to the ECHO. • c. Click on “Open” in the ECHO software and select the protocol “QLI5_25ul_30 uM-Grenier”. • d. Follow the on-screen prompts and instructions once you click “Start” to insert the compound plate, intermediate plate and destination plates. • e. Change the final number of destination plates on the program. • f. Follow the on-screen prompts and instructions once you click “Start” to load the Staurosporine and destination plates. • g. Once all the compounds, DMSO and Staurosporine have been transferred, place the destination plates in a wet tissue box. • h. Place the destination plates back into the incubator and incubate at 37° C., 5% CO2 for 105 minutes. • i. Re-seal all the compound+Stauro diamond and intermediate plates and store in the dark. Chymotrypsin like ProteasomeGlo Assay • 1. Thaw the components of the ProteasomeGlo assay at room temperature including the ProteasomeGlo Buffer, the lyophilized Luciferin Detection Reagent and the Suc-LLVY-Glo Substrate. • 2. Reconstitute the Luciferin Detection Reagent in the amber coloured bottle by adding 50 ml of the ProteasomeGlo Buffer. • 3. Vortex the Suc-LLVY-Glo Substrate briefly to reconstitute the Substrate well. • 4. Spin down the Substrate and add 250 μl of the Substrate to the reconstituted Luciferin Detection Reagent from step 2. • 5. Briefly vortex the amber bottle with the mix to prepare a homogenous solution. • 6. Place the mix prepared in step 5 to sit at room temperature for 60 minutes. • 7. After 60 minutes, pipette 25 μl of the mix from step 5 into all wells with the cells. • 8. Shake the plates for 2-5 minutes to ensure the complete mixing of the ProteasomeGlo reagent with the cells. • 9. Leave the plates in the dark for 10-15 minutes. • 10. Measure the luminescence read-out using the Viktor and the protocol “Luminescence_384Well_0.2 sec”. (Note: The Protoeasome-GloTM Reagent (combined Proteasome-GloTM Substrate, Proteasome-GloTM Buffer and Luciferin Detection Reagent) can be stored at 4° C. or -20° C. for 1 month with minimal loss of activity.)

IC50 (HT-29 cells) [µM] | Structure (SMILES) | other results
< 0.1 | CC(=O)N[C@H]1CC(=O)N2CCCC(CCOc3ccc(C)c(c3)CNC(=O)C(CCc3ccccc3)NC1=O)C2 (stereo partly drawn) [Compound 550, N-((12S)-5^4-methyl-8,11,14-trioxo-9-phenethyl-4-oxa-7,10-diaza-1(3,1)-piperidina-5(1,3)-benzenacyclotetradecaphane-12-yl)acetamide] | –
0.1 to 0.5 | CC(=O)N[C@H]1CC(=O)N2CCCC(CCOc3ccc(C)c(c3)CNC(=O)C(c3cnn(CCS(=O)(=O)O)c3)NC1=O)C2 (stereo partly drawn) [Compound 572, N-(4-((12S)-12-acetamido-5^4-methyl-8,11,14-trioxo-4-oxa-7,10-diaza-1(3,1)-piperidina-5(1,3)-benzenacyclotetradecaphane-9-yl)-1H-pyrazol-1-yl)ethane-1-sulfonic acid] | –
0.1 to 0.5 | CC(=O)N[C@H]1CC(=O)N2CC3CC(Oc4ccc(C)c(c4)CNC(=O)[C@H](CCc4ccccc4)NC1=O)C3C2 (stereo partly drawn) [Compound 298, N-(3^4-methyl-6,9,12-trioxo-7-phenethyl-2-oxa-13,5,8-triaza-1(6,3)-bicyclo[3.2.0]heptana-3(1,3)-benzenacyclododecaphane-10-yl)acetamide] | –

Continued, molecule first:

Structure (SMILES) | IC50 (HT-29 cells) [µM] | other results
Cc1ccc2cc1CNC(=O)[C@H](CCc1ccccc1)NC(=O)[C@@H](NS(=O)(=O)CCCc1ccccc1)CC(=O)N1CCCC(CCO2)C1 (stereo partly drawn) [Compound 44, N-((9S,12S)-5^4-methyl-8,11,14-trioxo-9-phenethyl-4-oxa-7,10-diaza-1(3,1)-piperidina-5(1,3)-benzenacyclotetradecaphane-12-yl)-3-phenyloropane-1-sulfonamide] | < 0.1 | –
Cc1ccc2cc1CNC(=O)[C@H](CCc1ccccc1)NC(=O)[C@@H](NC(=O)Cc1ccc(N)cc1)CC(=O)N1CCC[C@H](CCO2)C1 [Compound 172, 2-(4-aminophenyl)-N-((13R,9S,12S)-5^4-methyl-8,11,14-trioxo-9-phenethyl-4-oxa-7,10-diaza-1(3,1)-piperidina-5(1,3)-benzenacyclotetradecaphane-12-yl)acetamide] | < 0.1 | –
Cc1ccc2cc1CNC(=O)[C@H](CCc1ccccc1)NC(=O)[C@@H](NC(=O)CCNC(=O)C1CCC3(CCOCC3)CC1)CC(=O)N1CCCC(CCO2)C1 (stereo partly drawn) [Compound 576] | – | IC50 [1]: < 0.1 µM; IC50 [2]: < 0.1 µM
Cc1ccc2cc1CNC(=O)[C@H](CCc1ccccc1)NC(=O)[C@@H](NC(=O)Cc1cccc(Cl)c1)CC(=O)N1CCCC(CCO2)C1 (stereo partly drawn) [Compound 61, 2-(3-chlorophenyl)-N-((9S,12S)-54-methyl-8,11,14-trioxo-9-phenethyl-4-oxa-7,10-diaza-1(3,1)-piperidina-5(1,3)-benzenacyclotetradecaphane-12-yl)acetamide] | < 0.1 | –
Cc1ccc2cc1CNC(=O)C(CCc1cnccn1)NC(=O)[C@@H](NC(=O)[C@@H](C)c1ccccc1)CC(=O)N1CCCC(CCO2)C1 (stereo partly drawn) [Compound 107, (2S)—N-((12S)-5^4-methyl-8,11,14-trioxo-9-(2-(pyrazin-2-yl)ethyl)-4-oxa-7,10-diaza-1(3,1)-piperidina-5(1,3)-benzenacyclotetradecaphane-12-yl)-2-phenylpropanamide] | < 0.1 | –
Cc1ccc2cc1CNC(=O)[C@H](CCc1ccccc1)NC(=O)[C@@H](NC(=O)CCOCCCC1CCCC1)CC(=O)N1CCCC(CCO2)C1 (stereo partly drawn) [Compound 620, 3-(3-cyclopentylpropoxy)-N-((9S,12S)-5^4-methyl-8,11,14-trioxo-9-phenethyl-4-oxa-7,10-diaza-1(3,1)-piperidina-5(1,3)-benzenacyclotetradecaphane-12-yl)propanamide] | – | IC50 [1]: < 0.1 µM; IC50 [3]: < 0.1 µM; IC50 [2]: < 0.1 µM
Cc1cccc(CC(=O)N[C@H]2CC(=O)N3CCCC(CCOc4ccc(C)c(c4)CNC(=O)[C@H](CCc4ccccc4)NC2=O)C3)c1 (stereo partly drawn) [Compound 62, N-((9S,12S)-5^4-methyl-8,11,14-trioxo-9-phenethyl-4-oxa-7,10-diaza-1(3,1)-piperidina-5(1,3)-benzenacyclotetradecaphane-12-yl)-2-(m-tolyl)acetamide] | < 0.1 | –
Cc1ccc2cc1CNC(=O)[C@H](CCc1ccccc1)NC(=O)[C@@H](NC(=O)c1cccnc1)CC(=O)N1CCCC(CCO2)C1 (stereo partly drawn) [Compound 41, N-((9S,12S)-5^4-methyl-8,11,14-trioxo-9-phenethyl-4-oxa-7,10-diaza-1(3,1)-piperidina-5(1,3)-benzenacyclotetradecaphane-12-yl)nicotinamide] | < 0.1 | –
CC(=O)N[C@H]1CC(=O)N2CCC(C2)Oc2ccc(C)c(c2)CNC(=O)[C@H](CCc2ccccc2)NC1=O (stereo partly drawn) [Compound 261, N-((7S,10S)-3^4-methyl-6,9,12-trioxo-7-phenethyl-2-oxa-5,8-diaza-1(3,1)-pyrrolidina-3(1,3)-benzenacyclododecaphane-10-yl)acetamide] | 0.1 to 0.5 | –
CCNC(=O)N[C@H]1CC(=O)N2CCCC(CCOc3ccc(C)c(c3)CNC(=O)[C@H](CCc3ccccc3)NC1=O)C2 (stereo partly drawn) [Compound 38, 1-ethyl-3-((9S,12S)-5^4-methyl-8,11,14-trioxo-9-phenethyl-4-oxa-7,10-diaza-1(3,1)-piperidina-5(1,3)-benzenacyclotetradecaphane-12-yl)urea] | < 0.1 | –
Cc1ccc2cc1CNC(=O)C(CCc1ccccc1)NC(=O)CCC(=O)N1CCCC(CCO2)C1 (stereo not drawn) [Compound 495, 5^4-methyl-9-phenethyl-4-oxa-7,10-diaza-1(3,1)-piperidina-5(1,3)-benzenacyclotetradecaphane-8,11,14-trione] | 0.1 to 0.5 | –
CC(=O)N[C@H]1CC(=O)NCCOc2ccc(C)c(c2)CNC(=O)[C@H](CCc2ccccc2)NC1=O [Compound 252, N-((8S,11S)-1^4-methyl-6,9,12-trioxo-11-phenethyl-2-oxa-5,10,13-triaza-1(1,3)-benzenacyclotetradecaphane-8-yl)acetamide] | 0.1 to 0.5 | –
